# Patent US4231946A, “14,15-Methylene derivatives of the estrane series and methods for preparing same” (VEB Jenapharm, priority 1978, dated 1980)
# Like-named read-outs stand apart in the source and are kept apart here.
# Legend:
# [1] = test system: mice (uterine fresh weight); experiment: Uterine activity in mice (dose for doubling uterine fresh weight); type: in vivo, mouse; settings: for Total dose for doubling uterine fresh weight: p.o.; for Uterine response / uterine activity (in words): Table 6
# Description: (§1) Uterine and contraceptive activities produced by selected
# (§2) 14,15-methylene-17-ol-estratrienes in mice
# mice = experiment: Contraceptive activity in mice, single application on 1st day of gestation; type: in vivo, mouse; settings: for Contraceptive activities related to IHE1 (ranking in words): among the other compounds of Table 6; for THE, % after single application of 10 mg/kg of body-wt. on the 1st day of gestation p.o.: mice, 10 mg/kg p.o.
# Experimental: (§3) Gestation and nidation inhibition expressed in % were used as parameters for antifertility effects. GHE1 (gestation inhibitory effect) and IHE1 (nidation inhibitory effect) were related to the inhibition of the total of gestations or nidations, GHE2 and IHE2 were related to the inhibition of normal gestations or nidations within each group. […] GHE1, GHE2, IHE1 and IHE2 were calculated using the following formulae: [formula] n=number of females inseminated in each group v=test group
# (§4) f=average number (x) of all implantations (IHE1) and of normal implantations (IHE2) p. female inseminated within a group, respectively.
# (§5) For GHE1 and GHE2 the ED (effective doses) for the HE (inhibitory effect) 0%, 50%, and 95% as far as possible were determined by means of the probit analysis. The ED50 for IHE1 and IHE2 were determined graphically.
# as §1, §2
# inseminated rats = experiment: Antinidation / Nidation Inhibition Test in inseminated rats treated on the 1st day of gestation; type: in vivo, rat; settings: for ED50 / ED5 / ED95: Rattus norvegicus, po, STS 593 from trial No. 2; for Female rats pregnant of n, normal / Female rats pregnant of n, total / GHE1 / GHE2 / IHE1 / IHE2 / Implantations per female (-x), normal / Implantations per female (-x), total: mestranol 0.2 mg/kg p.o.
# Description: The favorable biological properties of the named compounds of the process according to the invention are to be further illustrated and described in the example of 3-methoxy-14β-15β-methylene-estra-1,3,5(10)-triene-17β-ol (test designation STS 593).
# as §3
# k=control group (sesame oil)
# x=number of all gestations (GHE1) and of normal gestations (GHE2) p. group, respectively
# as §4
# The comparison of the relative incidence of gestations was performed by the Ryan test, the comparison of the number of implantations by the Dunn test.
# as §5
# rats (testicular mass) = experiment: Antigonadotrophic activity (testicular mass) in rats; type: in vivo, rat; settings: Rattus norvegicus, 120 h; rats; read-out: Effective dose for the HE50, antigonadotrophic
# Experimental: The effective dose for the HE50 was close to 0.65 mg/kg of body-wt./5 d, while mestranol has the same effect at a dose as low as 0.15 mg/kg of body-wt./5 d.
# [2] = test system: infantile female Wistar rats; experiment: Uterine activity in infantile female Wistar rats; type: in vivo, Wistar rat; settings: n=10
# Description: STS 593 was weaker than ethynylestradiol by a factor of 9 in its estrogenic properties as shown by the Allen-Doisy test in ovariectomized mice. The compound was only 7% as active as the standard mestranol in producing a uterine response in infantile rats (Table 3), whereas the antiestrogenic properties exceeded those of clomiphene citrate by a factor of 1.4.
# Comparison of uterine activity in infantile female
# Wistar rats produced by STS 593 and mestranol
# [3] = General statement on antifertility effects and separation from uterine, estrogenic and antigonadotrophic activities; type: in vivo
# infantile rabbit uteri = experiment: McPhail test, progestagenic and antiprogestagenic activities in infantile rabbit uteri; type: in vivo; settings: progesterone 4 mg/animal s.c. alone, total dose over 4 days; n=6
# Description: The HE of 97.3% is significant (Table 5).
# Progestagenic and antiprogestagenic activities of STS 593
# in infantile rabbit uteri as shown by the McPhail test
# [4] = determined graphically, read-out: ED 50 for IHE1
# [5] = determined graphically, read-out: ED 50 for IHE2
# [6] = probit analysis, read-out: ED 05 for GHE1
# [7] = probit analysis, read-out: ED 05 for GHE2
# [8] = probit analysis, read-out: ED 50 for GHE1
# [9] = probit analysis, read-out: ED 50 for GHE2
# [10] = probit analysis, read-out: ED 95 for GHE1
# [11] = probit analysis, read-out: ED 95 for GHE2
smiles,measurement,setting,value
"COc1ccc2c(c1)CC[C@@H]1[C@@H]2CC[C@]2(C)C(OC(=O)Nc3ccccc3)CC3C[C@@]312 (stereo partly drawn) [STS 595, 17phenylaminocarbonyloxy-14β,15methylene-estra-1,3,5(10)-triene-3-mehylether]",Total dose for doubling uterine fresh weight,[1],100 μg/animal
"COc1ccc2c(c1)CC[C@@H]1[C@@H]2CC[C@]2(C)[C@@H](O)C[C@@H]3C[C@]312 [STS 651, 3-methoxy-14α,15α-methylene-estra-1,3,5(10)-triene-17β-ol]",Contraceptive activities related to IHE1 (ranking in words),mice,strongest contraceptive activities
same,"THE, % after single application of 10 mg/kg of body-wt. on the 1st day of gestation p.o.",mice,84.4%
same,Uterine response / uterine activity (in words),[1],strongest uterine response
same,Total dose for doubling uterine fresh weight,[1],0.2 μg/animal
same,ED50,inseminated rats; [4],0.107 mg/kg
same,ED50,inseminated rats; [5],0.096 mg/kg
same,ED5,inseminated rats; [6],0.059 mg/kg
same,ED5,inseminated rats; [7],0.043 mg/kg
same,ED50,inseminated rats; [8],0.183 mg/kg
same,ED50,inseminated rats; [9],0.11 mg/kg
same,ED95,inseminated rats; [10],0.583 mg/kg
same,ED95,inseminated rats; [11],0.265 mg/kg
"C#C[C@]1(O)CC[C@H]2[C@@H]3CCc4cc(OC)ccc4[C@H]3CC[C@@]21C [Mestranol, reference compound]","Female rats pregnant of n, normal","inseminated rats; 1st trial 1975, n=12",1
same,"Female rats pregnant of n, total","inseminated rats; 1st trial 1975, n=12",11
same,GHE1,"inseminated rats; 1st trial 1975, n=12",8.3%
same,GHE2,"inseminated rats; 1st trial 1975, n=12",91.7%
same,IHE1,"inseminated rats; 1st trial 1975, n=12",45.3%
same,IHE2,"inseminated rats; 1st trial 1975, n=12",98.7%
same,"Implantations per female (-x), normal","inseminated rats; 1st trial 1975, n=12",0.2
same,"Implantations per female (-x), total","inseminated rats; 1st trial 1975, n=12",6.8
same,"Female rats pregnant of n, normal","inseminated rats; 2nd trial 1978, n=10",0
same,"Female rats pregnant of n, total","inseminated rats; 2nd trial 1978, n=10",6
same,GHE1,"inseminated rats; 2nd trial 1978, n=10",40%
same,GHE2,"inseminated rats; 2nd trial 1978, n=10",100%
same,IHE1,"inseminated rats; 2nd trial 1978, n=10",70.8%
same,IHE2,"inseminated rats; 2nd trial 1978, n=10",100%
same,"Implantations per female (-x), normal","inseminated rats; 2nd trial 1978, n=10",0
same,"Implantations per female (-x), total","inseminated rats; 2nd trial 1978, n=10",3.8
same,ED50,inseminated rats; [4],0.17 mg/kg
same,ED50,inseminated rats; [5],0.15 mg/kg
same,ED5,inseminated rats; [6],0.097 mg/kg
same,ED5,inseminated rats; [7],0.065 mg/kg
same,ED50,inseminated rats; [8],0.34 mg/kg
same,ED50,inseminated rats; [9],0.163 mg/kg
same,ED95,inseminated rats; [10],1.11 mg/kg
same,ED95,inseminated rats; [11],0.387 mg/kg
same,ED50,rats (testicular mass),0.15 mg/kg
same,Uterine weight (-x),[2]; mestranol total dose 0.6 per animal over 3 days p.o.,70.11 mg
same,Uterine weight (-x),[2]; mestranol total dose 6.0 per animal over 3 days p.o.,95.45 mg
"COc1ccc2c(c1)CC[C@@H]1[C@@H]2CC[C@]2(C)[C@H](O)C[C@H]3C[C@@]312 [STS 592, 3-methoxy-14β-15β-methylene-estra-1,3,5(10)-triene-17α-ol]","THE, % after single application of 10 mg/kg of body-wt. on the 1st day of gestation p.o.",mice,35.0%
same,Uterine response / uterine activity (in words),[1],distinctly weaker uterine activities
same,Total dose for doubling uterine fresh weight,[1],7.0 μg/animal
same,Separation of desirable contraceptive and undesirable estrogenic effects,"[3]; mice, among the compounds of Table 6",most favorable separation
"COc1ccc2c(c1)CC[C@@H]1[C@@H]2CC[C@]2(C)[C@H](O)C[C@@H]3C[C@]312 [STS 652, 3-methoxy-14α,15α-methylene-estra-1,3,5(10)-triene-17α-ol]","THE, % after single application of 10 mg/kg of body-wt. on the 1st day of gestation p.o.",mice,60.0%
same,Uterine response / uterine activity (in words),[1],distinctly weaker uterine activities
same,Total dose for doubling uterine fresh weight,[1],3.0 μg/animal
same,Separation of desirable contraceptive and undesirable uterine and antigonadotrophic activities,[3]; in vivo,very favorable separation
"C#C[C@]1(O)CC[C@H]2[C@@H]3CCc4cc(O)ccc4[C@H]3CC[C@@]21C [Ethynylestradiol, reference compound]",ED50,inseminated rats; [4],0.37 mg/kg
same,ED50,inseminated rats; [5],< 0.21 mg/kg
same,ED50,inseminated rats; [8],≤ 0.45 mg/kg
same,ED50,inseminated rats; [9],< 0.3 mg/kg
"CC(=O)[C@H]1CC[C@H]2[C@@H]3CCC4=CC(=O)CC[C@]4(C)[C@H]3CC[C@]12C [Progesterone, reference compound]",McPhail index (-x),infantile rabbit uteri,3.0
"COc1ccc2c(c1)CC[C@@H]1[C@@H]2CC[C@]2(C)C(OC(=O)Nc3ccccc3)CC3C[C@@]312 (stereo partly drawn) [STS 594, 17phenylaminocarbnoyloxy-14β,15methylene-estra-1,3,5(10)-triene-3-mehylether]",Total dose for doubling uterine fresh weight,[1],100 μg/animal
"COc1ccc2c(c1)CC[C@@H]1[C@@H]2CC[C@@]2(C)[C@@]13C[C@@H]3C[C@]2(C)O [STS 681, 3-methoxy-17α-methyl-14β,15β-methylene-estra-1,3,5(10)-triene-17β-ol]",Contraceptive activities related to IHE1 (ranking in words),mice,strongest contraceptive activities
same,"THE, % after single application of 10 mg/kg of body-wt. on the 1st day of gestation p.o.",mice,81.7%
same,Uterine response / uterine activity (in words),[1],distinctly weaker uterine activities
same,Total dose for doubling uterine fresh weight,[1],0.56 μg/animal
same,Antifertility effects (in words),[3]; in vivo,strong antifertility effects
same,Separation of desirable contraceptive and undesirable uterine and antigonadotrophic activities,[3]; in vivo,very favorable separation
